According to patent US8148392B2, “2-indolyl imidazo [4,5-d] phenanthroline derivatives and their use in the treatment of cancer” (Lorus Therapeutics Inc., priority 2005, dated 2012):

Assays:
[1] = test system: MOLT-4 leukemia cell line; experiment: NCI DTP in vitro screen, MOLT-4; type: cell-based; details: Homo sapiens
Description: (§1) For example, the following methodology, which is currently employed by the NCI, can be used to assess the GI50 of a candidate compound of Formula I in the selected cancer cell lines. Briefly, cell suspensions are diluted (5000-40,000 cells per well) and 100 μL of the diluted cell suspension is added into 96-well microtiter plates. Inoculates are allowed a preincubation period of 24 h at 37° C. for stabilization. Dilutions at twice the intended test concentration of the candidate compound are added at time zero in 100 μL aliquots to the microtiter plate wells. Test compounds are generally evaluated at five 10-fold dilutions. In routine testing, the highest well concentration is usually 10E-4 M, but this may be adjusted depending on the compound being tested. […] The cells are then assayed by using the sulforhodamine B assay (see, for example, Skehan, P., et al. (1990) JNCI, J. Natl. Cancer Inst. 82, 1107-1112; and Chen, S. F., et al. (1990) Proc. Am. Assoc. Cancer Res. 31, A2644) employing a plate reader which can be used to read the optical densities.
(§2) Compounds 2 and 3 were evaluated for their antiproliferative effects in a panel of 60 human cancer cell lines as part of the in vitro anticancer screening services provided by the DTP (Developmental Therapeutics Program) of the US National Cancer Institute (NCI).

K-562 leukemia cell line = experiment: NCI DTP in vitro screen, K-562; type: cell-based, human; details: K-562, in words
Description: as §1, §2

Sp1 [2] = experiment: Sp1 DNA binding activity, EMSA, HT-29 nuclear extracts; type: cell-based, human
Description: (§3) Based on overlapping transcription factor binding sites on KLF4 gene promoter region (as shown in FIG. 32A), MTF-1 binding may favor increased binding of other KLF4 inducers; Sp1 and KLF4.
(§4) Electrophoretic mobility shift assay (EMSA) was performed as follows. Nuclear extracts from HT-29 cells (10^7 cells in 100 mm culture dish in each experimental group) were prepared using nuclear extraction kit (Panomics, Redwood City, Calif.). EMSA assays were performed using KLF4 and Sp1 EMSA “Gel-Shift” kits (Panomics), by following the manufacturer's instruction. Briefly, 5 μg of nuclear extract was used for each binding reaction. After 30 min of binding reaction, the samples were separated on 6% polyacrylamide gel at 4° C. at 120 V, and transferred to BrightStar™-Plus positively charged nylon membrane. The biotin-labeled probes on the membrane were visualized by using ECL detection system (Panomics).

KLF4 = KLF4 DNA binding activity, EMSA, HT-29 nuclear extracts; type: cell-based, human
Description: as §3, §4

Sp1 [3] = experiment: Sp1 binding to Cyclin D1 promoter, ChIP, HT-29; type: cell-based, human; details: HT-29, ChIP
Description: Based on overlapping transcription factor binding sites on Cyclin D1 gene promoter region (FIG. 33A), increased binding of a negative regulator KLF4 may replace the binding of a positive regulator Sp1. In vivo KLF4 and Sp1 binding to Cyclin D1 promoter was shown by chromatin immuno-precipitation assay (ChIP) (FIG. 33B).
Chromatin immunoprecipitation (ChIP) was performed as follows. Cell lysates from HT-29 cells (5.5×10^5 cells in three 15 cm-culture plates in each experimental group) were prepared at the end of the indicated experiments, and ChIP assays were performed using anti-KLF4 and anti-Sp1 antibodies (Santa Cruz Biotechnology Inc.) and ChIP-ITTM kit (Active Motif, Carlsbad, Calif.) by following the manufacturer's instruction. The primers encompassing-231 to -92 region of Cyclin D1 promoter; 5′ primer (5′-CGGACTACAGGGGCAA-3′) [SEQ ID NO:1] and 3′ primer (5′-GCTCCAGGACTTTGCA-3′) [SEQ ID NO:2] were synthesized at Invitrogen.

[4] = test system: MT-1 isolated from rabbit liver; experiment: Chelation of zinc from metallothionein MT-1, PAR colorimetric zinc assay; type: biochemical; details: 25 μM MT, compound 0.15 to 60 μM, 15 min
Source text: Intracellular zinc exists as a labile pool, loosely bound to storage proteins metallothioneins (MT), which store up to 7 or 8 zinc per molecule. The labile zinc pool donates zinc to enzymes or transcription factors, which require reversible binding with zinc for their full activity (Tapiero and Tew (2003) Biomed Pharmacother 57(9): 399-411). The efficiency of compound 3 to remove zinc from MT was investigated. MT-1 isolated from rabbit liver, containing mainly MT-1a and MT-2e with ˜7 zinc per molecule in ≧95% of MT was purchased from Alexis Biochemicals (Lausen, Switzerland). The content of zinc in MT was measured in vitro using 4-(2-pyridylazo) resorcinol (PAR) colorimetric zinc assay as described in the preceding Examples. The change in absorbance of PAR after PAR-zinc ion complex formation was measured at 500 nm (Dinkova-Kostova et al., (2005) Biochemistry 44(18): 6889-6899). To determine chelation of zinc from MT-1 by compound 3 in vitro, MT-125 μM in […] volume of 0.2M Tris-HCl, pH 7.5 was added to 96-well plate. Compound 3 (0.15 to 60 μM) in 80% acetonitrile/20% DMSO was added to MT-1 for 15 min at room temperature. PAR (200 μM in 0.2M Tris-HCl, pH 7.5) was added and the color development of PAR-zinc complex was measured by a multi-well spectrophotometer at 500 nm as shown in FIG. 47.

Cc1[nH]c2ccccc2c1-c1nc2c3cccnc3c3ncccc3c2[nH]1 [Compound 3]
GI50 [1]: 16 nM | GI50 (K-562 leukemia cell line): nanomolar range | DNA binding activity of Sp1 (Sp1 [2]): Increased DNA binding activities | DNA binding activity of KLF4 (KLF4): Increased DNA binding activities | Sp1 binding to Cyclin D1 promoter (Sp1 [3]): decreased Sp1 binding | PAR absorbance of MT (removal of zinc from metallothionein) [4]: Dose-dependent decreases in PAR absorbance
